Measured values from ChEMBL document CHEMBL5465560, “Selectivity Literature for EUbOPEN Chemogenomic Library” (2024).
One block for each molecule: values may come before it.

Experiments:
[1] = target: Epidermal growth factor receptor (Homo sapiens, UniProt P00533); test: Selectivity interaction (Rxn Biology Kinase assay) EUB0001632a EGFR; details: at 10 µM
[2] = target: T1, Aurora kinase A (Homo sapiens) (UniProt O14965); test: Selectivity interaction (SelectScreen profiling (Invitrogen)) EUB0000607a STK6; details: at 2 µM
T1 sequence (whole entry): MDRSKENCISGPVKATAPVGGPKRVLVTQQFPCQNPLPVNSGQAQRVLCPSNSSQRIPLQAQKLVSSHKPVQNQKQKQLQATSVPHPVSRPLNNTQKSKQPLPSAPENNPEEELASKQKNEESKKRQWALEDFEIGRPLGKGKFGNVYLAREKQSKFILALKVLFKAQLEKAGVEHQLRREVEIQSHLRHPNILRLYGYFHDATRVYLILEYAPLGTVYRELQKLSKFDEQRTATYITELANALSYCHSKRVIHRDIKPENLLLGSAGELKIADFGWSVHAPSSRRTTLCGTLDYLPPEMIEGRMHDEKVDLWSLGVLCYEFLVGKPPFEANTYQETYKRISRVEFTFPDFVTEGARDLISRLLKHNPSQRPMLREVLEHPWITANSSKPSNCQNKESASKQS

[3] = target: Serine/threonine-protein kinase PAK 3 (Homo sapiens) (UniProt O75914); test: Selectivity interaction (Upstate Kinase Profiler service (Millipore)) EUB0000056c PAK3; details: at 1 µM
[4] = target: T2, Kinase suppressor of Ras 1 (Homo sapiens) (UniProt Q8IVT5); test: Selectivity interaction (Kinase panel (KiNativ target engagement assay in Jurkat cells)) EUB0001635a KSR1; format: cell-based; details: at 1 µM
T2 sequence (whole entry): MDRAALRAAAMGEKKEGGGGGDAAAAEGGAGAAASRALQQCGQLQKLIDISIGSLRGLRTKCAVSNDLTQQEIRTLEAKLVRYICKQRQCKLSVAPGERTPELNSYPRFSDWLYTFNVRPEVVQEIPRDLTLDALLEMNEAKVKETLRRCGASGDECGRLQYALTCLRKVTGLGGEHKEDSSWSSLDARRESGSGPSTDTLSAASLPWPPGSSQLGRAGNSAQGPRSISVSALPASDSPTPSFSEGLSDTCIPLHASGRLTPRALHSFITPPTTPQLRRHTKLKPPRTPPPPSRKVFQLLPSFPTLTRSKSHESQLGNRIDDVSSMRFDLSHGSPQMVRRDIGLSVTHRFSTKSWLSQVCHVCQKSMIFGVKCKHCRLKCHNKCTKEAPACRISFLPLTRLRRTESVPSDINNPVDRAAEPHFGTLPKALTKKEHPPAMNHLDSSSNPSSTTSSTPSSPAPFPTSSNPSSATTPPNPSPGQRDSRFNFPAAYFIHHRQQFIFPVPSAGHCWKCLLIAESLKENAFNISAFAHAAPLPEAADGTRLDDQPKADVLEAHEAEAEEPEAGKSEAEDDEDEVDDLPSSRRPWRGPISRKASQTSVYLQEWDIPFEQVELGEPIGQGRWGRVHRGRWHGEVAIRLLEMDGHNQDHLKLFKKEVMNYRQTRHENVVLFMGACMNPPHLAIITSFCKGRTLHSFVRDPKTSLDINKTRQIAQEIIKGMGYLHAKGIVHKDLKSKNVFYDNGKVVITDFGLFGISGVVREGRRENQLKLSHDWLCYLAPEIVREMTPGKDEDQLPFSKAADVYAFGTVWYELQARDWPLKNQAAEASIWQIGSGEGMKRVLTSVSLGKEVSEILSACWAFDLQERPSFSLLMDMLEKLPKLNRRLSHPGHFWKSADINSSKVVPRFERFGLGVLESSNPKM

[5] = target: T3, Mitogen-activated protein kinase kinase kinase 19 (Homo sapiens) (UniProt Q56UN5); test: Selectivity interaction (KinomeScan (DiscoverX)) EUB0001550a MAP3K19; details: at 1 µM
T3 sequence (whole entry): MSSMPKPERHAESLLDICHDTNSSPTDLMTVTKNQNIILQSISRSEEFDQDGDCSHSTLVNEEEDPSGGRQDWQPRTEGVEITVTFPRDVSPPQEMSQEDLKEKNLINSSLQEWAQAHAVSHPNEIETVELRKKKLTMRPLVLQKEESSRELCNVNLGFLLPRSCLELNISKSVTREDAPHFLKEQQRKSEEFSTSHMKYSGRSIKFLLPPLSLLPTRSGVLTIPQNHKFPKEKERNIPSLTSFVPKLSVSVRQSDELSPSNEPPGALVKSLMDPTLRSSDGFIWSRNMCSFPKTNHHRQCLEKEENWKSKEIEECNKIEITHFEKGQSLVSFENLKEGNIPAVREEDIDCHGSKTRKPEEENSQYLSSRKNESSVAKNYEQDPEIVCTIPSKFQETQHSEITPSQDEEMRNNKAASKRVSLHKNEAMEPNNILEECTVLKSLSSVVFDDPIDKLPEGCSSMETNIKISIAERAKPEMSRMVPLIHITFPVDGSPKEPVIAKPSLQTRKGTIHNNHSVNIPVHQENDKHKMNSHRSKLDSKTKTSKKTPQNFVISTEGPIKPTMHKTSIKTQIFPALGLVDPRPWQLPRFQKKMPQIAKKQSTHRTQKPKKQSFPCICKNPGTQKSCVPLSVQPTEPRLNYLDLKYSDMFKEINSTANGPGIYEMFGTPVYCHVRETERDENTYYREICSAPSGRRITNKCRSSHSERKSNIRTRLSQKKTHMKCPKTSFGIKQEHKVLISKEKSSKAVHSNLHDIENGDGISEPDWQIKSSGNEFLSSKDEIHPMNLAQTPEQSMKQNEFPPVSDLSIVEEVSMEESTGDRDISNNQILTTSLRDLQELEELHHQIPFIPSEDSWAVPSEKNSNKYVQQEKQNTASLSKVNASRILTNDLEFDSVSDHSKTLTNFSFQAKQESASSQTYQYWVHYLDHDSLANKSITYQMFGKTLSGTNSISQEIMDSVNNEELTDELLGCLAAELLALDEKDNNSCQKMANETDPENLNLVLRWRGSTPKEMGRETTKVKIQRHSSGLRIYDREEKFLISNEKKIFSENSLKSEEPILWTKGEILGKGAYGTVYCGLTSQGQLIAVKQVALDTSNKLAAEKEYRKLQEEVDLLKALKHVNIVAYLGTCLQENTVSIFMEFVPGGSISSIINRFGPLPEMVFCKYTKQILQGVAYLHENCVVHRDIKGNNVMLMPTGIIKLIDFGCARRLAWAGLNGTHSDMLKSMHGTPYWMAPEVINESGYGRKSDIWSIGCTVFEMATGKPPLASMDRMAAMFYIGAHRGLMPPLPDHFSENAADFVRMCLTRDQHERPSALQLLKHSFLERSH

[6] = target: Serine/threonine-protein kinase WNK4 (Homo sapiens) (UniProt Q96J92); test: Selectivity interaction (ActivX KiNativ screen (ex vivo kinase selectivity in human PBMCs)) EUB0001619a WNK4; format: cell-based; details: PBMC, at 1 µM
Chain of Serine/threonine-protein kinase WNK4 (Homo sapiens) (Q96J92 whole entry): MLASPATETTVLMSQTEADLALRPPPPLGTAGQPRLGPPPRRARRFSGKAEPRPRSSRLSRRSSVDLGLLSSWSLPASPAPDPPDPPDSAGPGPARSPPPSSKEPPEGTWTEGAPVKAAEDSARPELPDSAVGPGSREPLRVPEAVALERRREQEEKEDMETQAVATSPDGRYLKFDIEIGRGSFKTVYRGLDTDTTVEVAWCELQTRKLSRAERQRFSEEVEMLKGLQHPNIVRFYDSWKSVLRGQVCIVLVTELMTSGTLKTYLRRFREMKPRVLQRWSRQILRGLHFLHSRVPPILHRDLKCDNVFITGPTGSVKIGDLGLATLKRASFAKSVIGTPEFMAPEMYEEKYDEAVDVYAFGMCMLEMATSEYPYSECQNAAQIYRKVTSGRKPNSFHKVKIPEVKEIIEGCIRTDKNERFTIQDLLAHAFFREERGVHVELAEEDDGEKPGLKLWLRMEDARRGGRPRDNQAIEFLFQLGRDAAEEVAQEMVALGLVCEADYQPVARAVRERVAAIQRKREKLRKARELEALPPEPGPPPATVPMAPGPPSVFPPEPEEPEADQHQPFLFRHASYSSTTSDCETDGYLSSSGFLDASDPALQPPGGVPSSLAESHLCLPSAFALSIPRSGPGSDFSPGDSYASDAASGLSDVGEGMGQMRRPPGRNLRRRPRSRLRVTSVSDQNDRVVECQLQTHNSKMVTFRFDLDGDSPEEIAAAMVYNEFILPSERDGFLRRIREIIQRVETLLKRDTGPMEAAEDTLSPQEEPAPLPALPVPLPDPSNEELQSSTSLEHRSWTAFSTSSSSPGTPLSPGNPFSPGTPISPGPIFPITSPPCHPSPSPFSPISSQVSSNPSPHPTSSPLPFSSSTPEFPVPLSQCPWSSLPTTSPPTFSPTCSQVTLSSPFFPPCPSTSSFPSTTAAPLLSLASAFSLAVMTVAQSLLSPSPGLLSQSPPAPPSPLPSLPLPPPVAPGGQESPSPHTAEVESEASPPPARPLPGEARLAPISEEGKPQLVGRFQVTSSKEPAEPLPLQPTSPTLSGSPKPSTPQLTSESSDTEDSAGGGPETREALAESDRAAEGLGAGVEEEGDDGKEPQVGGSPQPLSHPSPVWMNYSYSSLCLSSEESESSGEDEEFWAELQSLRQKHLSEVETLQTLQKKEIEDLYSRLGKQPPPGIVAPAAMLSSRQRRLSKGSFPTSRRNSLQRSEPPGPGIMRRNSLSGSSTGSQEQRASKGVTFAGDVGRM

Chain of Epidermal growth factor receptor (P00533 whole entry): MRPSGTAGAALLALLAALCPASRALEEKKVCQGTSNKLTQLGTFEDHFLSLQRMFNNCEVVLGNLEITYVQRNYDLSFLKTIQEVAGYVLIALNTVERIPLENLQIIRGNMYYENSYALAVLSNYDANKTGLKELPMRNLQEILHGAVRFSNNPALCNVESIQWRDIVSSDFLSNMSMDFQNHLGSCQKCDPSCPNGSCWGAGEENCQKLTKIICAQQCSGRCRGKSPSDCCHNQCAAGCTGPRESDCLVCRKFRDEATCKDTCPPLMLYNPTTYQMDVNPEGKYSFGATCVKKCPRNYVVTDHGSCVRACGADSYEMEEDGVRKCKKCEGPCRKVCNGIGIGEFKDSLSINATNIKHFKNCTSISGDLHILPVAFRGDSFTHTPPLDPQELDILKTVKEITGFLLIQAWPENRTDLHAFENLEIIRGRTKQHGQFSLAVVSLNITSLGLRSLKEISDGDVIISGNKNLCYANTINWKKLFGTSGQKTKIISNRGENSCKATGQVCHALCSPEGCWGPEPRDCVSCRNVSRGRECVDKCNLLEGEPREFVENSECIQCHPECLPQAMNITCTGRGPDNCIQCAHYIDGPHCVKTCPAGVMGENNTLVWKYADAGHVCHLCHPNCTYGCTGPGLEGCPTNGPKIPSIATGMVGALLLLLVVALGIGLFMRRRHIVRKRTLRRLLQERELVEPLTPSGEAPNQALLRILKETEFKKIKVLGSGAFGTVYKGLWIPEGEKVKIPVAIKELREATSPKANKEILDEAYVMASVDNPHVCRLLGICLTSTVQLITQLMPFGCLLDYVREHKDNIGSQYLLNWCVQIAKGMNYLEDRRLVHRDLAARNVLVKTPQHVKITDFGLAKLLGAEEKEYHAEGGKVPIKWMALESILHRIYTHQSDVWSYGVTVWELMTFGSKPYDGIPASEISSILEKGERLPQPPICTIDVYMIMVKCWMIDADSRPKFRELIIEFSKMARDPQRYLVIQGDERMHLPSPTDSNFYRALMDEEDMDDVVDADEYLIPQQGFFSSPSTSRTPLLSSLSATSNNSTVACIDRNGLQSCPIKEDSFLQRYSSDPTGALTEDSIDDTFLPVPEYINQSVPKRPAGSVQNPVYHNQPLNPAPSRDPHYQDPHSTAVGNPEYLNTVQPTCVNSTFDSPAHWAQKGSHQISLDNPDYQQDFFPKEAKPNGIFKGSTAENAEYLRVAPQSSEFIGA
Chain of Serine/threonine-protein kinase PAK 3 (Homo sapiens) (O75914 whole entry, looked up): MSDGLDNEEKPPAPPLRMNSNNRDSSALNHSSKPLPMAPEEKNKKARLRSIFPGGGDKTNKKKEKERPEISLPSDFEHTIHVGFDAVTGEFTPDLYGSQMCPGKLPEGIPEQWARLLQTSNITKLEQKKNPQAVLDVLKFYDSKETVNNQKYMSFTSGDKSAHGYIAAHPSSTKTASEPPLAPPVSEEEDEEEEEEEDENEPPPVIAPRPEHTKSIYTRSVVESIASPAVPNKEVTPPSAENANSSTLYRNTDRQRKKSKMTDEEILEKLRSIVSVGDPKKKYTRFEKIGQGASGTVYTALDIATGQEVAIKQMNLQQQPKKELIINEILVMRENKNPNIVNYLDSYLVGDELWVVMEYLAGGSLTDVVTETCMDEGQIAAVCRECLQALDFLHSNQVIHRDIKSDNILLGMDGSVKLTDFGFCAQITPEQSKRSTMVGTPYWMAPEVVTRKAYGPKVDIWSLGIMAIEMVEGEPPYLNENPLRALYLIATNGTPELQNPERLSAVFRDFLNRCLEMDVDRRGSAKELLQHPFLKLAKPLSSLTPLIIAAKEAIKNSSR

SMILES: CNC(=O)Nc1ccc(-c2nc(N3CC4CCC(C3)O4)c3cnn(C4CCC5(CC4)OCCO5)c3n2)cc1
% of inhibition [2]: 0%

SMILES: C=CC(=O)Nc1ccc(C(=O)Nc2[nH]nc3c2CN(C(=O)N[C@H](CN(C)C)c2ccccc2)C3(C)C)cc1
% of engagement [4]: -1.6%

SMILES: N#Cc1cccc(-c2c[nH]c3ncnc(N4CCOCC4)c23)c1
% of inhibition [6]: -1%

More lines, now with the values ahead:

% of inhibition [1]: 3.44%
SMILES: Cn1cc(-n2cnc3c(NCc4nc5cc(Cl)c(Cl)cc5[nH]4)nc(N4CCOCC4)nc32)cn1

% of inhibition [3]: 37%
SMILES: Cc1ccc(-c2ccc3c(ccc4sc5c(c43)NC[C@@H](C)NC5=O)n2)cn1

% of control [5]: 9.9%
SMILES: CN(C)CC#Cc1ccc2[nH]c3c(c2c1)-c1nc(N)ncc1CCC3
